± gives the expanded uncertainty stated by the source.
How the values were obtained:
[1] = 101 kPa, Liquid; for mass density: Vibrating tube method
[2] = xn = mol fraction of the nth substance listed; conditions: 101 kPa, Liquid, x1 = 1; for mass density: Vibrating tube method

NCCO.O=CO [2-hydroxyethylammonium formate]
[1]
Conditions | mass density [kg/m3] | speed of sound [m/s]
288.15 K | 1183.57 ± 31 | 1733.9 ± 9.9
290.65 K | 1181.81 ± 31 | 1727.4 ± 9.9
293.15 K | 1180.04 ± 31 | 1721.3 ± 9.8
295.65 K | 1178.27 ± 31 | 1715.1 ± 9.8
298.15 K | 1176.49 ± 31 | 1709 ± 9.8
300.65 K | 1174.71 ± 31 | 1702.9 ± 9.8
303.15 K | 1172.94 ± 31 | 1696.8 ± 9.8
305.65 K | 1171.16 ± 31 | 1690.8 ± 9.8
308.15 K | 1169.39 ± 31 | 1684.8 ± 9.7
310.65 K | 1167.62 ± 31 | 1678.7 ± 9.7
313.15 K | 1165.84 ± 31 | 1672.7 ± 9.7
315.65 K | 1164.06 ± 31 | 1666.7 ± 9.7
318.15 K | 1162.29 ± 31 | 1660.8 ± 9.6
320.65 K | 1160.51 ± 31 | 1654.8 ± 9.6
323.15 K | 1158.73 ± 31 | 1648.9 ± 9.6

CCO [ethanol]
[1]
Conditions | mass density [kg/m3] | speed of sound [m/s]
288.15 K | 794.444 ± 30 | 1178.2 ± 6.3
290.65 K | 792.305 ± 30 | 1169.1 ± 6.3
293.15 K | 790.158 ± 30 | 1160.3 ± 6.3
295.65 K | 788.027 ± 30 | 1151.7 ± 6.2
298.15 K | 785.89 ± 30 | 1143.1 ± 6.2
300.65 K | 783.729 ± 30 | 1134.6 ± 6.2
303.15 K | 781.591 ± 30 | 1126.2 ± 6.1
305.65 K | 779.402 ± 30 | 1117.8 ± 6.1
308.15 K | 777.238 ± 30 | 1109.4 ± 6.1
310.65 K | 775.055 ± 30 | 1101 ± 6
313.15 K | 772.846 ± 30 | 1092.7 ± 6
315.65 K | 770.625 ± 30 | 1084.3 ± 6
318.15 K | 768.482 ± 30 | 1075.9 ± 5.9
320.65 K | 766.198 ± 30 | 1067.5 ± 5.9
323.15 K | 764.019 ± 30 | 1058.8 ± 5.9

CCO [ethanol] + NCCO.O=CO
[2]
Conditions | mass density [kg/m3] | speed of sound [m/s]
288.15 K | 794.444 ± 30 | 1178.2 ± 6.3
290.65 K | 792.305 ± 30 | 1169.1 ± 6.3
293.15 K | 790.158 ± 30 | 1160.3 ± 6.3
295.65 K | 788.027 ± 30 | 1151.7 ± 6.2
298.15 K | 785.89 ± 30 | 1143.1 ± 6.2
300.65 K | 783.729 ± 30 | 1134.6 ± 6.2
303.15 K | 781.591 ± 30 | 1126.2 ± 6.1
305.65 K | 779.402 ± 30 | 1117.8 ± 6.1
308.15 K | 777.238 ± 30 | 1109.4 ± 6.1
310.65 K | 775.055 ± 30 | 1101 ± 6
313.15 K | 772.846 ± 30 | 1092.7 ± 6
315.65 K | 770.625 ± 30 | 1084.3 ± 6
318.15 K | 768.482 ± 30 | 1075.9 ± 5.9
320.65 K | 766.198 ± 30 | 1067.5 ± 5.9
323.15 K | 764.019 ± 30 | 1058.8 ± 5.9

CO [methanol]
[1]
Conditions | mass density [kg/m3] | speed of sound [m/s]
288.15 K | 795.775 ± 30 | 1134.5 ± 6.2
290.65 K | 793.495 ± 30 | 1126.2 ± 6.1
293.15 K | 791.149 ± 30 | 1118 ± 6.1
295.65 K | 788.811 ± 30 | 1109.8 ± 6.1
298.15 K | 786.463 ± 30 | 1101.6 ± 6
300.65 K | 784.102 ± 30 | 1093.4 ± 6
303.15 K | 781.764 ± 30 | 1085.5 ± 6
305.65 K | 779.385 ± 30 | 1077.3 ± 5.9
308.15 K | 777.026 ± 30 | 1069.2 ± 5.9
310.65 K | 774.659 ± 30 | 1061.1 ± 5.9
313.15 K | 772.261 ± 30 | 1052.9 ± 5.8
315.65 K | 769.86 ± 30 | 1044.9 ± 5.8
318.15 K | 767.541 ± 30 | 1036.7 ± 5.8
320.65 K | 765.074 ± 30 | 1028.6 ± 5.8
323.15 K | 762.738 ± 30 | 1020.5 ± 5.7

CO [methanol] + NCCO.O=CO
[2]
Conditions | mass density [kg/m3] | speed of sound [m/s]
288.15 K | 795.775 ± 30 | 1134.5 ± 6.2
290.65 K | 793.495 ± 30 | 1126.2 ± 6.1
293.15 K | 791.149 ± 30 | 1118 ± 6.1
295.65 K | 788.811 ± 30 | 1109.8 ± 6.1
298.15 K | 786.463 ± 30 | 1101.6 ± 6
300.65 K | 784.102 ± 30 | 1093.4 ± 6
303.15 K | 781.764 ± 30 | 1085.5 ± 6
305.65 K | 779.385 ± 30 | 1077.3 ± 5.9
308.15 K | 777.026 ± 30 | 1069.2 ± 5.9
310.65 K | 774.659 ± 30 | 1061.1 ± 5.9
313.15 K | 772.261 ± 30 | 1052.9 ± 5.8
315.65 K | 769.86 ± 30 | 1044.9 ± 5.8
318.15 K | 767.541 ± 30 | 1036.7 ± 5.8
320.65 K | 765.074 ± 30 | 1028.6 ± 5.8
323.15 K | 762.738 ± 30 | 1020.5 ± 5.7

O [water] + NCCO.O=CO
[2]
Conditions | mass density [kg/m3] | speed of sound [m/s]
290.65 K | 998.68 ± 30 | 1474.7 ± 7.5
295.65 K | 997.65 ± 30 | 1489.9 ± 7.6
300.65 K | 996.37 ± 30 | 1503.4 ± 7.6
305.65 K | 994.86 ± 30 | 1515.1 ± 7.7
310.65 K | 993.15 ± 30 | 1525 ± 7.7
313.15 K | – | 1529.3 ± 7.7
315.65 K | 991.24 ± 30 | 1533.2 ± 7.7
318.15 K | – | 1536.6 ± 7.8
320.65 K | 989.15 ± 30 | 1539.6 ± 7.8
323.15 K | 988.04 ± 30 | 1542.1 ± 7.8

Source: the NIST ThermoML archive (doi:10.1016/j.jct.2007.05.011)
